# According to patent US20120045393A1 (priority 2009, published 2012):
# Non-standard residues stand in square brackets, D forms with d. Residues, ends and D or L forms follow the SMILES beside them. *: point of attachment. DOTA = O=C(O)CN1CCN(CC(=O)O)CCN(CC(=O)*)CCN(CC(=O)O)CC1; Bpa = N[C@@H](Cc1ccc(C(=O)c2ccccc2)cc1)C(=O)O; Ala(4-thiazolyl) = N[C@@H](Cc1cscn1)C(=O)O; d2Nal = N[C@H](Cc1ccc2ccccc2c1)C(=O)O; His(π-Me) = Cn1cncc1C[C@H](N)C(=O)O; Nicotinoyl = O=C(c1cccnc1)*; azaGly = NNC(=O)O; Sar = CNCC(=O)O
# Tested on: LHRH binding sites on human ovarian cancer cells (EFO-27)
# Conditions: not given
# 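Note: Cell-associated radioactivity on confluent EFO-27 monolayers in 96-well plates, measured by microplate scintillation counting.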
row,Structure (SMILES),EC50
1,N=C(N)NCCC[C@H](NC(=O)[C@@H](Cc1ccc2ccccc2c1)NC(=O)CN1CCN(CC(=O)O)CCN(CC(=O)O)CCN(CC(=O)O)CC1)C(=O)N[C@@H](Cc1c[nH]c2ccccc12)C(=O)N[C@@H](CO)C(=O)N[C@@H](Cc1c[nH]cn1)C(=O)N[C@H](CCCNC(=N)N)C(=O)N[C@@H](Cc1c[nH]c2ccccc12)C(=O)N[C@@H](Cc1ccc(C(=O)c2ccccc2)cc1)C(=O)N1CCC[C@H]1C(=O)NCCCO [compound 2982],1130 nM
2,CNCC(=O)N[C@@H](CCCNC(=N)N)C(=O)N[C@@H](Cc1c[nH]c2ccccc12)C(=O)N[C@@H](CO)C(=O)N[C@@H](Cc1c[nH]cn1)C(=O)N[C@H](CCCNC(=N)N)C(=O)N[C@@H](Cc1c[nH]c2ccccc12)C(=O)N[C@@H](Cc1ccc(C(=O)c2ccccc2)cc1)C(=O)N1CCC[C@H]1C(=O)NCCCN(C)CCCNC(=O)CN1CCN(CC(=O)O)CCN(CC(=O)O)CCN(CC(=O)O)CC1 [BRU-3045],≤ 200 nM
3,CNCC(=O)N[C@@H](CCCNC(=N)N)C(=O)N[C@@H](Cc1c[nH]c2ccccc12)C(=O)N[C@@H](CO)C(=O)N[C@@H](Cc1c[nH]cn1)C(=O)N[C@H](CCCNC(=N)N)C(=O)N[C@@H](Cc1c[nH]c2ccccc12)C(=O)N[C@@H](Cc1ccc(C(=O)c2ccccc2)cc1)C(=O)N1CCC[C@H]1C(=O)NCc1cccc(CNC(=O)CN2CCN(CC(=O)O)CCN(CC(=O)O)CCN(CC(=O)O)CC2)n1 [compound 3080],230 ± 100 nM
4,CN(CC(=O)N[C@@H](Cc1c[nH]cn1)C(=O)N[C@@H](Cc1c[nH]c2ccccc12)C(=O)N[C@@H](CO)C(=O)N[C@@H](Cc1c[nH]cn1)C(=O)N[C@H](CCCNC(=N)N)C(=O)N[C@@H](Cc1c[nH]c2ccccc12)C(=O)N[C@@H](Cc1ccccc1)C(=O)N1CCC[C@H]1C(=O)NNC(N)=O)C(=O)CN1CCN(CC(=O)O)CCN(CC(=O)O)CCN(CC(=O)O)CC1 [BRU-2730] (HELM PEPTIDE1{[O=C(O)CN1CCN(CC(=O)O)CCN(CC(=O)[*:2])CCN(CC(=O)O)CC1].[Sar].H.W.S.H.[dR].W.F.P.[O=C(NN[*:1])[*:2]].[am]}$$$$V2.0),12900 nM
5,CN(CC(=O)N[C@@H](Cc1cncn1C)C(=O)N[C@@H](Cc1c[nH]c2ccccc12)C(=O)N[C@@H](CO)C(=O)N[C@@H](Cc1cscn1)C(=O)N[C@H](CCCNC(=N)N)C(=O)N[C@@H](Cc1c[nH]c2ccccc12)C(=O)N[C@@H](Cc1ccc(C(=O)c2ccccc2)cc1)C(=O)N1CCC[C@H]1C(=O)NNC(N)=O)C(=O)CN1CCN(CC(=O)O)CCN(CC(=O)O)CCN(CC(=O)O)CC1 [BRU-2739] ({DOTA}-[Sar][His(π-Me)]WS[Ala(4-thiazolyl)][dR]W[Bpa]P[azaGly]-NH2; C-terminus assumed),5280 nM
6,CN(CC(=O)N[C@@H](Cc1c[nH]cn1)C(=O)N[C@@H](Cc1c[nH]c2ccccc12)C(=O)N[C@@H](CO)C(=O)N[C@@H](Cc1c[nH]cn1)C(=O)N[C@H](CCCNC(=N)N)C(=O)N[C@@H](Cc1c[nH]c2ccccc12)C(=O)N[C@@H](CC1CCCCC1)C(=O)N1CCC[C@H]1C(=O)NNC(N)=O)C(=O)CN1CCN(CC(=O)O)CCN(CC(=O)O)CCN(CC(=O)O)CC1 [BRU-2718],630 nM
7,CN(CC(=O)N[C@@H](Cc1c[nH]cn1)C(=O)N[C@@H](Cc1c[nH]c2ccccc12)C(=O)N[C@@H](CO)C(=O)N[C@@H](Cc1c[nH]cn1)C(=O)N[C@H](CCCNC(=N)N)C(=O)N[C@@H](Cc1c[nH]c2ccccc12)C(=O)N[C@@H](Cc1ccc(C(=O)c2ccccc2)cc1)C(=O)N1CCC[C@H]1C(=O)NNC(N)=O)C(=O)c1ccc(CNC(=O)CN2CCN(CC(=O)O)CCN(CC(=O)O)CCN(CC(=O)O)CC2)cc1 [compound 2727],650 nM
8,N=C(N)NCCC[C@H](NC(=O)[C@@H](Cc1ccc2ccccc2c1)NC(=O)CN1CCN(CC(=O)O)CCN(CC(=O)O)CCN(CC(=O)O)CC1)C(=O)N[C@@H](Cc1cccnc1)C(=O)N[C@@H](CO)C(=O)N[C@@H](Cc1c[nH]cn1)C(=O)N[C@H](CCCNC(=N)N)C(=O)N[C@@H](Cc1c[nH]c2ccccc12)C(=O)N[C@@H](Cc1ccc(C(=O)c2ccccc2)cc1)C(=O)N1CCC[C@H]1C(=O)NNC(N)=O [compound 3109],730 nM
9,NCCCC[C@@H](NC(=O)[C@H](Cc1c[nH]cn1)NC(=O)[C@H](CO)NC(=O)[C@H](Cc1c[nH]c2ccccc12)NC(=O)[C@H](Cc1c[nH]cn1)NC(=O)[C@@H]1CCC(=O)N1)C(=O)N[C@@H](Cc1c[nH]c2ccccc12)C(=O)N[C@@H](Cc1ccc(O)cc1)C(=O)N1CCC[C@H]1C(=O)NNC(N)=O [BRU-2437] (HELM PEPTIDE1{[Glp].H.W.S.H.[dK].W.Y.P.[O=C(NN[*:1])[*:2]].[am]}$$$$V2.0),8540 nM
10,N=C(N)NCCC[C@H](NC(=O)[C@H](N)Cc1ccc2ccccc2c1)C(=O)N[C@@H](Cc1c[nH]c2ccccc12)C(=O)N[C@@H](CO)C(=O)N[C@@H](Cc1c[nH]cn1)C(=O)N[C@H](CCCNC(=N)N)C(=O)N[C@@H](Cc1c[nH]c2ccccc12)C(=O)N[C@@H](Cc1ccc(C(=O)c2ccccc2)cc1)C(=O)N1CCC[C@H]1C(=O)NCCCCNC(=O)CN1CCN(CC(=O)O)CCN(CC(=O)O)CCN(CC(=O)O)CC1 [BRU-3042],≤ 200 nM
11,CNCC(=O)N[C@@H](Cc1c[nH]cn1)C(=O)N[C@@H](Cc1c[nH]c2ccccc12)C(=O)N[C@@H](CO)C(=O)N[C@@H](Cc1c[nH]cn1)C(=O)N[C@H](CCCNC(=N)N)C(=O)N[C@@H](Cc1c[nH]c2ccccc12)C(=O)N[C@@H](Cc1ccc(C(=O)c2ccccc2)cc1)C(=O)N1CCC[C@H]1C(=O)NCCNC(=O)CN1CCN(CC(=O)O)CCN(CC(=O)O)CCN(CC(=O)O)CC1 [BRU-3079],590 to 1000 nM
12,CN(CC(=O)N[C@@H](Cc1c[nH]cn1)C(=O)N[C@@H](Cc1c[nH]c2ccccc12)C(=O)N[C@@H](CO)C(=O)N[C@@H](Cc1c[nH]cn1)C(=O)N[C@H](CCCNC(=N)N)C(=O)N[C@@H](Cc1c[nH]c2ccccc12)C(=O)N[C@@H](Cc1cccc2ccccc12)C(=O)N1CCC[C@H]1C(=O)NNC(N)=O)C(=O)CN1CCN(CC(=O)O)CCN(CC(=O)O)CCN(CC(=O)O)CC1 [BRU-2720],540 nM
13,CN(CC(=O)N[C@@H](Cc1c[nH]cn1)C(=O)N[C@@H](Cc1c[nH]c2ccccc12)C(=O)N[C@@H](CO)C(=O)N[C@@H](Cc1cscn1)C(=O)N[C@H](CCCNC(=N)N)C(=O)N[C@@H](Cc1c[nH]c2ccccc12)C(=O)N[C@@H](Cc1ccc(C(=O)c2ccccc2)cc1)C(=O)N1CCC[C@H]1C(=O)NNC(N)=O)C(=O)CN1CCN(CC(=O)O)CCN(CC(=O)O)CCN(CC(=O)O)CC1 [BRU-2769] ({DOTA}-[Sar]HWS[Ala(4-thiazolyl)][dR]W[Bpa]P[azaGly]-NH2; C-terminus assumed),7340 nM
14,C[C@H](NC(=O)[C@H](CO)NC(=O)[C@H](Cc1c[nH]c2ccccc12)NC(=O)[C@H](CCCNC(=N)N)NC(=O)[C@@H](Cc1ccc2ccccc2c1)NC(=O)CN1CCN(CC(=O)O)CCN(CC(=O)O)CCN(CC(=O)O)CC1)C(=O)N[C@H](CCCNC(=N)N)C(=O)N[C@@H](Cc1c[nH]c2ccccc12)C(=O)N[C@@H](Cc1ccc(C(=O)c2ccccc2)cc1)C(=O)N1CCC[C@H]1C(=O)NNC(N)=O [compound 3028] ({DOTA}-[d2Nal]RWSA[dR]W[Bpa]P[azaGly]-NH2),1090 nM

# Same assay, conditions: EFO-27 cells, competition with [125I-Tyr8]BRU-2477, 90 min
row,Structure (SMILES),EC50
1,N=C(N)NCCC[C@H](NC(=O)[C@H]1Cc2c([nH]c3ccccc23)CN1C(=O)CNC(=O)CN1CCN(CC(=O)O)CCN(CC(=O)O)CCN(CC(=O)O)CC1)C(=O)N[C@@H](Cc1c[nH]c2ccccc12)C(=O)N[C@@H](CO)C(=O)N[C@@H](Cc1c[nH]cn1)C(=O)N[C@H](CCCNC(=N)N)C(=O)N[C@@H](Cc1c[nH]c2ccccc12)C(=O)N[C@@H](Cc1ccc(C(=O)c2ccccc2)cc1)C(=O)N1CCC[C@H]1C(=O)NNC(N)=O [BRU-3068],240 nM
2,CN(CC(=O)N[C@@H](Cc1c[nH]cn1)C(=O)N[C@@H](Cc1c[nH]c2ccccc12)C(=O)N[C@@H](CO)C(=O)N[C@@H](Cc1c[nH]cn1)C(=O)N[C@H](CCCCNC(=O)c1cccnc1)C(=O)N[C@@H](Cc1c[nH]c2ccccc12)C(=O)N[C@@H](Cc1ccc(C(=O)c2ccccc2)cc1)C(=O)N1CCC[C@H]1C(=O)NNC(N)=O)C(=O)CN1CCN(CC(=O)O)CCN(CC(=O)O)CCN(CC(=O)O)CC1 [compound 2671] ({DOTA}-[Sar]HWSH[dK](Nicotinoyl)W[Bpa]P[azaGly]-NH2),7200 nM
3,CN(CC(=O)N[C@@H](Cc1c[nH]cn1)C(=O)N[C@@H](Cc1c[nH]c2ccccc12)C(=O)N[C@@H](CO)C(=O)N[C@@H](Cc1ccc(O)cc1)C(=O)N[C@H](CCCNC(=N)N)C(=O)N[C@@H](Cc1c[nH]c2ccccc12)C(=O)N[C@@H](Cc1ccc(C(=O)c2ccccc2)cc1)C(=O)N1CCC[C@H]1C(=O)NNC(N)=O)C(=O)CN1CCN(CC(=O)O)CCN(CC(=O)O)CCN(CC(=O)O)CC1 [BRU-2668] ({DOTA}-[Sar]HWSY[dR]W[Bpa]P[azaGly]-NH2; C-terminus assumed),3470 nM
4,N=C(N)NCCC[C@H](NC(=O)[C@@H](Cc1ccc2ccccc2c1)NC(=O)CN1CCN(CC(=O)O)CCN(CC(=O)O)CCN(CC(=O)O)CC1)C(=O)N[C@@H](Cc1c[nH]c2ccccc12)C(=O)N[C@@H](CO)C(=O)N[C@@H](Cc1c[nH]cn1)C(=O)N[C@H](CCCNC(=N)N)C(=O)N[C@@H](Cc1c[nH]c2ccccc12)C(=O)N[C@@H](Cc1ccc(C(=O)c2ccccc2)cc1)C(=O)N1CCC[C@H]1C(=O)NCC(=O)NCCCO [compound 2987],2300 nM

# Same assay, conditions: Table 5: modifications of amino acids at positions 1 and 2; in vitro binding on EFO-27 cells
row,Structure (SMILES),EC50
1,N=C(N)NCCC[C@@H](NC(=O)[C@H](Cc1c[nH]cn1)NC(=O)[C@H](CO)NC(=O)[C@H](Cc1c[nH]c2ccccc12)NC(=O)[C@H](Cc1c[nH]cn1)NC(=O)[C@H](Cc1ccccc1)NC(=O)CN1CCN(CC(=O)O)CCN(CC(=O)O)CCN(CC(=O)O)CC1)C(=O)N[C@@H](Cc1c[nH]c2ccccc12)C(=O)N[C@@H](Cc1ccc(C(=O)c2ccccc2)cc1)C(=O)N1CCC[C@H]1C(=O)NNC(N)=O [BRU-2735],1140 nM
2,CN(CC(=O)N[C@@H](Cc1ccccc1)C(=O)N[C@@H](Cc1c[nH]c2ccccc12)C(=O)N[C@@H](CO)C(=O)N[C@@H](Cc1c[nH]cn1)C(=O)N[C@H](CCCNC(=N)N)C(=O)N[C@@H](Cc1c[nH]c2ccccc12)C(=O)N[C@@H](Cc1ccc(C(=O)c2ccccc2)cc1)C(=O)N1CCC[C@H]1C(=O)NNC(N)=O)C(=O)CN1CCN(CC(=O)O)CCN(CC(=O)O)CCN(CC(=O)O)CC1 [BRU-2738] ({DOTA}-[Sar]FWSH[dR]W[Bpa]P[azaGly]-NH2),1220 nM
